Source: US8871755B2, “Alkene azetidine derivatives as sphingosine 1-phosphate (S1P) receptor modulators” (Allergan, Inc., priority 2013, dated 2014)

Each compound was assayed against T1, human S1P1 receptor (Homo sapiens, UniProt P21453) (assay: GTP γ35S binding assay for S1P1 activity). Settings: activity potency from GTP γ35S binding; membranes of cells stably expressing the S1P1 receptor; 30 min at 25° C.
T1 construct: expressed in transfected cells; membranes were used
T1 sequence (P21453 whole entry): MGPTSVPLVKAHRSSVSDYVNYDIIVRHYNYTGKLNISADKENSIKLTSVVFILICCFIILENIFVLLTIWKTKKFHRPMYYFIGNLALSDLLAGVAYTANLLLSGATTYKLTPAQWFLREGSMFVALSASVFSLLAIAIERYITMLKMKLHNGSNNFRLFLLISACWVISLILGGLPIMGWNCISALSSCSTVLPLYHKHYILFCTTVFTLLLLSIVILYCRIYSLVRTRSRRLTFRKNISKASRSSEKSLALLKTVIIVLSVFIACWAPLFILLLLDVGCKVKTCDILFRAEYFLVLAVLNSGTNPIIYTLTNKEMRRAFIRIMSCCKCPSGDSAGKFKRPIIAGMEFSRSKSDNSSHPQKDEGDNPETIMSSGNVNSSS
Assay type: biochemical
Description: Compounds were synthesized and tested for S1P1 activity using the GTP γ^35S binding assay. These compounds may be assessed for their ability to activate or block activation of the human S1P1 receptor in cells stably expressing the S1P1 receptor. […] binding was measured in the medium containing (mM) HEPES 25, pH 7.4, MgCl2 10, NaCl 100, dithitothreitol 0.5, digitonin 0.003%, 0.2 nM GTP γ^35S, and 5 μg membrane protein in a volume of 150 μl. Test compounds were included in the concentration range from 0.08 to 5,000 nM unless indicated otherwise. Membranes were incubated with 100 μM 5′-adenylylimmidodiphosphate for 30 min, and subsequently with 10 μM GDP for 10 min on ice. Drug solutions and membrane were mixed, and then reactions were initiated by adding GTP γ^35S and continued for 30 min at 25° C. Reaction mixtures were filtered over Whatman GF/B filters under vacuum, and washed three times with 3 mL of ice-cold buffer (HEPES 25, pH7.4, MgCl2 10 and NaCl 100). Filters were dried and mixed with scintillant, and counted for ^35S activity using a […]. Agonist-induced GTP γ^35S binding was obtained by subtracting that in the absence of agonist. Binding data were analyzed using a non-linear regression method. In case of antagonist assay, the reaction mixture contained 10 nM S1P in the presence of test antagonist at concentrations ranging from 0.08 to 5000 nM.
`Cc1ccc(C=C(CCCOc2ccc(CN3CC(C(=O)O)C3)cc2)c2ccsc2)cc1C` [1-(4-{[5-(3,4-dimethylphenyl)-4-(3-thienyl)pent-4-en-1-yl]oxy}benzyl)azetidine-3-carboxylic acid] was tested, and the EC50 was 36 nM. With `Cc1ccc(/C=C(\CCCOc2ccc(CN3CC(C(=O)O)C3)cc2)c2cccc(F)c2F)cc1C` [Compound 1, 1-(4-{[(4E)-4-(2,3-Difluorophenyl)-5-(3,4-dimethylphenyl)pent-4-en-1-yl]oxy}benzyl)azetidine-3-carboxylic acid] the EC50 was 480 nM. `Cc1ccc(/C=C(\CCCCSc2ccc(CN3CC(C(=O)O)C3)cc2)c2cc(F)cc(F)c2)cc1C` [Compound 4, 1-(4-{[(5E)-5-(3,5-difluorophenyl)-6-(3,4-dimethylphenyl)hex-5-en-1-yl]sulfanyl}benzyl)azetidine-3-carboxylic acid] showed an EC50 of 652 nM. `Cc1ccc(/C=C(\CCCOc2ccc(CN3CC(C(=O)O)C3)cc2)c2cccc(Cl)c2)cc1C` [Compound 5, 1-(4-{[(4E)-4-(3-Chlorophenyl)-5-(3,4-dimethylphenyl)pent-4-en-1-yl]oxy}benzyl)azetidine-3-carboxylic acid] gave an EC50 of 27.9 nM. With `Cc1ccc(/C=C(\CCCOc2ccc(CN3CC(C(=O)O)C3)cc2)c2cc(F)cc(F)c2)cc1C` [Compound 6, 1-(4-{[(4E)-4-(3,5-Difluorophenyl)-5-(3,4-dimethylphenyl)pent-4-en-1-yl]oxy}benzyl)azetidine-3-carboxylic acid] the EC50 was 4.21 nM. Compound `Cc1ccc(/C=C(\CCC[S+]([O-])c2ccc(CN3CC(C(=O)O)C3)cc2)c2cc(F)cc(F)c2)cc1C` (stereo not drawn) [Compound 7] has an EC50 of 158 nM.
